The values that follow come from ChEMBL document CHEMBL1201862, “PubChem BioAssay data set” (2004).

Molecules are shown by their SMILES. Calls of active or inactive are those of the source. Where only a bound is given, the exact number is not on record here.

For data set [1], the system named is INS1. The data set is described as follows: beta cell apoptosis inhibitors, cytokine rescue, dose response, luminescence, retest (AID 449756).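 Also: cell death triggered by IL-1 beta plus TNF-alpha plus IFN-gamma mixture; protective hits raise ATP signal compared with cytokine alone wells.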 The note with it: Rattus norvegicus, INS1. It counts as functional, cell-based.
For data set [2], the target named is T1, Microphthalmia-associated transcription factor (Homo sapiens, UniProt O75030).
T1 sequence (O75030 whole entry): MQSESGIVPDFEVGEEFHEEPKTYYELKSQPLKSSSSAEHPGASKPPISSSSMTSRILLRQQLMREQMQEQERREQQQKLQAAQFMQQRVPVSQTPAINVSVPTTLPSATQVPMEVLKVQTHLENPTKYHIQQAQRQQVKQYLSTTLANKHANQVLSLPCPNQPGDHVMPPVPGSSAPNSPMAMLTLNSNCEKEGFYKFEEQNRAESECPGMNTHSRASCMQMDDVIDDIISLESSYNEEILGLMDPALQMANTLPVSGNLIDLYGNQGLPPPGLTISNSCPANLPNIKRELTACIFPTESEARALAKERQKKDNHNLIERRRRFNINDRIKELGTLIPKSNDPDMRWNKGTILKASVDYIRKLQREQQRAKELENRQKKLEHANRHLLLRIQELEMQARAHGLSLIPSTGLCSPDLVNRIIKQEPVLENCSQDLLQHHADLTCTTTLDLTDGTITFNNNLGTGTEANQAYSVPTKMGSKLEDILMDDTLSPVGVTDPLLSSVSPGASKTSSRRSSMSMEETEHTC
The data set is described as follows: TRPM1 promoter luciferase signal decrease, dose response, MITF inhibitor project, cell-based, SK-MEL-5, cherry-picked, set 3 (AID 493073).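 Also: SK-MEL-5 melanoma cells with luciferase driven by the MITF target TRPM1 promoter.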 It counts as functional.

Data set [3] is described as follows: growth suppression of beta-catenin-knockout colon cells, dose response, cell-based, HCT116, human colon tumor (AID 1045).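 Also: HCT116 colon tumor cells with beta catenin knocked out; cells exposed to compound for 60 hours.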 It counts as functional.
Data set [4] is described as follows: inhibitors of intracellular T. cruzi replication, confirmation, NIH3T3 host cells, beta-gal luminescence (AID 2044).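 Also: intracellular parasites grown in NIH/3T3 mouse fibroblasts as host cells; luminescent beta-galactosidase reporter signal from transgenic T. cruzi replicating inside host cells; inhibitors lower the luminescence signal.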 It counts as functional, cell-based.
The nature of data set [5]: cytotoxicity toward NIH3T3 fibroblasts, dose response, counter-screen, cell-based, ATP luminescence, mouse fibroblasts (AID 2010).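 Also: cells exposed to compound for about 90 hours before reading.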 In kind it is functional. (In general: Counterscreens check selectivity or assay interference.)
A short description of data set [6]: growth suppression of PTEN-null colon cells, dose response, cell-based, HCT116 PTEN knockout (AID 1047).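 Also: HCT116 colon tumor cells with PTEN knocked out; cells exposed to compound for 60 hours before readout; potency for loss of cell viability measured by luminescence.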 It counts as functional.
A short description of data set [7]: cells. It counts as functional.
The nature of data set [8]: Vero E6 cell cytotoxicity, dose response, cytotoxicity control for non-replicating M. tuberculosis project, secondary assay (AID 492998). As to conditions: Vero C1008. It counts as functional, VeroE6.
Data set [9] in a line: Luminescence Cell-Based Dose Retest to Confirm Inhibitors of Cancer Stem Cells. [Related pubchem assays (depositor defined):AID2717, AID2721]. In kind it is functional. The note with it: Homo sapiens.
Data set [10] deals with A-375. The data set is described as follows: MITF: Counter assay: A375 proliferation Measured in Cell-Based System Using Plate Reader - 2084-03_Inhibitor_Dose_DryPowder_Activity. [Related pubchem assays (depositor defined):AID488944]. It counts as functional. As to conditions: Homo sapiens.
Data set [11] is described as follows: THP-1 cell cytotoxicity, dose response, cytotoxicity control for non-replicating M. tuberculosis project (AID 489025). In kind it is functional.
Data set [12] is described as follows: HepG2 cell cytotoxicity, dose response, cytotoxicity control for non-replicating M. tuberculosis project (AID 489018). The note with it: Mycobacterium tuberculosis. It counts as functional.
Data set [13] addresses Tumor necrosis factor (Homo sapiens, UniProt P01375). The data set is described as follows: TNFa-triggered NF-kB activation inhibitors, SAR follow-up, cell-based, revised (AID 2337). It counts as functional.
The subject of data set [14] is HEK293. The data set is described as follows: cells. The note with it: Homo sapiens.
For data set [15], the target named is T2, Intestinal-type alkaline phosphatase (Homo sapiens, UniProt P09923). The data set is described as follows: human IAP activators, dose response, biochemical, luminescent, uHTS hits, set 2 (AID 488817).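 Also: potency of activators that raise enzyme activity.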 In kind it is functional.
The target in data set [16] is T2, Intestinal-type alkaline phosphatase. The data set is described as follows: human intestinal alkaline phosphatase activators, dose response, biochemical, luminescence, uHTS hits (AID 463120). It counts as functional.
In data set [17] the target is Intestinal-type alkaline phosphatase (Mus musculus, UniProt P24822). The data set is described as follows: PubChem AID 488874. It counts as functional.
Data set [18] deals with T3, Alkaline phosphatase, tissue-nonspecific isozyme (Homo sapiens, UniProt P05186).
T3 sequence (P05186 whole entry): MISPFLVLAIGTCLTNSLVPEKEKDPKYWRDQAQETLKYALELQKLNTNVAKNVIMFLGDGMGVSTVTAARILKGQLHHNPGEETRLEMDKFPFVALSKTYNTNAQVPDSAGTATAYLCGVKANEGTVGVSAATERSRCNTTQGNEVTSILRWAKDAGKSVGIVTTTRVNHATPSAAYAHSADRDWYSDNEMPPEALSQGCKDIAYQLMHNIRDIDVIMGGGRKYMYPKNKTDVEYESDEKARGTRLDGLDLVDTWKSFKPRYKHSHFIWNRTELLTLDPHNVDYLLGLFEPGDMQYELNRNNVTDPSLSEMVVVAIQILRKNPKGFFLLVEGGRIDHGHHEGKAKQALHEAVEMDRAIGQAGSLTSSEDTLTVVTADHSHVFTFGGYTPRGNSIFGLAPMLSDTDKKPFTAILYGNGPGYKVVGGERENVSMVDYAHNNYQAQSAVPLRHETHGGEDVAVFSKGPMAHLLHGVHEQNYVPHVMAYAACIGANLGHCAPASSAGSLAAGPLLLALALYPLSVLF
The data set is described as follows: TNAP enzyme activators, dose response, selectivity assay for human IAP activator project, biochemical, TNAP isozyme, human IAP uHTS hits (AID 488886).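 Also: potency of compounds raising TNAP activity as a selectivity check on IAP activators.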 It counts as functional.

Data set [19] concerns the target Type-1 angiotensin II receptor (Homo sapiens, UniProt P30556). The data set is described as follows: AT1 receptor antagonists, dose response, selectivity assay for APJ receptor antagonist project, cell-based, uHTS hits (AID 463214).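 Also: antagonist potency against angiotensin II stimulated AT1 response.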 In kind it is functional.
Data set [20] in a line: HepG2 cell cytotoxicity, dose response, cytotoxicity control, ATP luminescence, cherry-pick, activator set 2 (AID 1053143). In kind it is functional, cell-based.
Data set [21] addresses T4, Heat shock factor protein 1 (Mus musculus, UniProt P38532).
T4 sequence (P38532 whole entry): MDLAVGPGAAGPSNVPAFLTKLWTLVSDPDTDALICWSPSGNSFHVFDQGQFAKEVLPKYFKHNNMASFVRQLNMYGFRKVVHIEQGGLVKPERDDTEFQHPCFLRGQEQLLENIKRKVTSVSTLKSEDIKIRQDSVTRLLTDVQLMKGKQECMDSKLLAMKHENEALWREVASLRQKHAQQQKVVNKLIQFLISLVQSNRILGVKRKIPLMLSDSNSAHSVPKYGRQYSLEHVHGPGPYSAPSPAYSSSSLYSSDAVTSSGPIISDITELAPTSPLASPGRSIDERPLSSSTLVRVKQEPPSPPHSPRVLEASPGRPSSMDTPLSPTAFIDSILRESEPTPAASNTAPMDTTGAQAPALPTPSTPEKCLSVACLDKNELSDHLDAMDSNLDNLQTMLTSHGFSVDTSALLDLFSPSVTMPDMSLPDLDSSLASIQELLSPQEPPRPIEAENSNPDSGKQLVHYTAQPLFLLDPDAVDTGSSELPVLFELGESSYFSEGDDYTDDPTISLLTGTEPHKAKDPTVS
The data set is described as follows: HSF1 potentiators in luciferase reporter cells, confirmation, cell-based, NIH3T3, luminescence, dose retest (AID 435004).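 Also: stress induced by proteasome inhibitor MG132 added 30 min after compound; luciferase reporter driven by HSF1 response element in NIH3T3 cells; actives raise luminescence as potentiators of the MG132 stress response.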 It counts as functional.

The target in data set [22] is Beta-galactosidase (Escherichia coli, UniProt Q8VNN2). The data set is described as follows: PubChem AID 485352. In kind it is functional.
The target of data set [23] is T5, Cytochrome P450 1A2 (Homo sapiens, UniProt P05177).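 Also: PubChem cytochrome P450 panel assay, CYP1A2 panel member.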
T5 sequence (P05177 whole entry): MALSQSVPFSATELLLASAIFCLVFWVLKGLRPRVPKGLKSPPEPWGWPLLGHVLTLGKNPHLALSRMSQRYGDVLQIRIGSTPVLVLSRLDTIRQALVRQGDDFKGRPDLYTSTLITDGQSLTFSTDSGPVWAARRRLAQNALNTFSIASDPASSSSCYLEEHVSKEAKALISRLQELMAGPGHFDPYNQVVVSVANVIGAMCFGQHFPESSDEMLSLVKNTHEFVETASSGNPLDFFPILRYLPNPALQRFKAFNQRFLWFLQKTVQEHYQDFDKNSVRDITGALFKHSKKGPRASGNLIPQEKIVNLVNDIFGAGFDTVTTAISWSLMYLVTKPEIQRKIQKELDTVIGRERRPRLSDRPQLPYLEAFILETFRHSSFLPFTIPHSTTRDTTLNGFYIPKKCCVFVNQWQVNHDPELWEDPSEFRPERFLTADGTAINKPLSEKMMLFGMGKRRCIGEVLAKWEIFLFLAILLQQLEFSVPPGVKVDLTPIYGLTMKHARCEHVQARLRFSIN

A short description of data set [24]: Artemis endonuclease inhibitor potency, dose response, biochemical, fluorescence intensity (AID 720701).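 Also: Artemis endonuclease enzyme.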 In kind it is functional.
The target in data set [25] is Cytochrome P450 3A4 (Homo sapiens, UniProt P08684).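 Also: CYP3A4 tested as one member of a cytochrome P450 panel screen.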
Data set [26] can be described thus: M. tuberculosis H37Rv growth inhibitors, H37Rv strain (AID 1626). It counts as functional.
Data set [27] concerns A-375. The data set is described as follows: A375 melanoma cell viability reduction, dose response, counter-screen for MITF modulator project, cherry-pick samples, set 2 (AID 540335). In kind it is functional, cell-based. As to conditions: Homo sapiens.
Data set [28] addresses T6, Ubiquitin-conjugating enzyme E2 N (Homo sapiens, UniProt P61088).
T6 sequence (P61088 whole entry): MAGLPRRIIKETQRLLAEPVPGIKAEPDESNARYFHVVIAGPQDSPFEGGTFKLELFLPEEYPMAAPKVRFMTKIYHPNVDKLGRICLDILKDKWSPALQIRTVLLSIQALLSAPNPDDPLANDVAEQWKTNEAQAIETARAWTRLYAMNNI
In kind it is functional.

Type-1 angiotensin II receptor, sequence (P30556 whole entry): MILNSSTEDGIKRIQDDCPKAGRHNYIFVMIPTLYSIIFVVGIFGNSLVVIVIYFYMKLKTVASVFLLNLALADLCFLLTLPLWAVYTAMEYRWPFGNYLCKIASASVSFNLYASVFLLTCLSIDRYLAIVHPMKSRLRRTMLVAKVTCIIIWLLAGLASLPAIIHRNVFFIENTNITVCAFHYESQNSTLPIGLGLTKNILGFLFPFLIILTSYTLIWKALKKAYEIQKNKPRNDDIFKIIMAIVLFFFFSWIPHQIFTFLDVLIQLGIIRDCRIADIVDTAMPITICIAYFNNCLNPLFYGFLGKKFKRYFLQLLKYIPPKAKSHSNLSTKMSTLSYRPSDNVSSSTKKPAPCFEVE
T2 sequence (P09923 whole entry): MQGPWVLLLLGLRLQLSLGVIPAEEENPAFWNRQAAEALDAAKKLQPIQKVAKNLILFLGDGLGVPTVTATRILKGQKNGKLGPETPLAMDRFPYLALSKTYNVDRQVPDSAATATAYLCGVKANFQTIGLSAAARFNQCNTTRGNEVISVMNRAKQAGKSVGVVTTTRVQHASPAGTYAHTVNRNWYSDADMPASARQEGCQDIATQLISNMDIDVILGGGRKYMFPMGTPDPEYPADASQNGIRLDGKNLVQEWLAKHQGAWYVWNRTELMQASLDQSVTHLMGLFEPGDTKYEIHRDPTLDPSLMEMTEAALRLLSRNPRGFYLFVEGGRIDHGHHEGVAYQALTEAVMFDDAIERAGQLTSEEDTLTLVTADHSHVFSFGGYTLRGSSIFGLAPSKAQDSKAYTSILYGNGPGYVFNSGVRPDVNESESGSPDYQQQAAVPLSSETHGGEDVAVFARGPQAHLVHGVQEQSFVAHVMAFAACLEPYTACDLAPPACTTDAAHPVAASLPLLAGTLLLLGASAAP
Beta-galactosidase, sequence (Q8VNN2 whole entry): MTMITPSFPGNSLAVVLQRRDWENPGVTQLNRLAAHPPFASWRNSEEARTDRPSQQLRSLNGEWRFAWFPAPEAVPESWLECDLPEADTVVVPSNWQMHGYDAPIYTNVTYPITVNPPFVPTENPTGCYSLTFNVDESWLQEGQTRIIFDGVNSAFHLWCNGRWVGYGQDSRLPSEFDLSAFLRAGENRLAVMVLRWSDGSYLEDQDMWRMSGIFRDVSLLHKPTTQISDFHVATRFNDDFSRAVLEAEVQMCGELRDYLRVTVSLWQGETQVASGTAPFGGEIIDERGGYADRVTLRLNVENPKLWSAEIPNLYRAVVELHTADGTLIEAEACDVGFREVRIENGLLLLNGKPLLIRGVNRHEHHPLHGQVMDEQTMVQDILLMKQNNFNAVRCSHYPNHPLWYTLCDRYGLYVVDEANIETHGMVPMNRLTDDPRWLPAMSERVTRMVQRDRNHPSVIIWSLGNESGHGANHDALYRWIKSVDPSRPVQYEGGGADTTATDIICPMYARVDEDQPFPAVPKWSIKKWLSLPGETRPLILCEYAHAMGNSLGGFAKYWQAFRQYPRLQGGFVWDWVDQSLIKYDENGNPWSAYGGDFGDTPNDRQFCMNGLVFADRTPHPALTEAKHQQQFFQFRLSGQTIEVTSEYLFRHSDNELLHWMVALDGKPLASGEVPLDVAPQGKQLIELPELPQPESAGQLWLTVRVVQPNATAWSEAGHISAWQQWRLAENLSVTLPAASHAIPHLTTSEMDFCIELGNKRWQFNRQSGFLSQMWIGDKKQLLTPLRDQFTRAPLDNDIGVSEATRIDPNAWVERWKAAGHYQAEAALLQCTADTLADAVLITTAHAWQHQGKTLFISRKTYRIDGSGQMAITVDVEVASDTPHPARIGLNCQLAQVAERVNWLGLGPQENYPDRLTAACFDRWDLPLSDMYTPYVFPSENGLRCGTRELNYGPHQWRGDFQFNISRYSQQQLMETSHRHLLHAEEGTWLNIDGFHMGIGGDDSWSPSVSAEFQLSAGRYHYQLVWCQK
Intestinal-type alkaline phosphatase (Mus musculus, UniProt P24822), sequence (P24822 whole entry): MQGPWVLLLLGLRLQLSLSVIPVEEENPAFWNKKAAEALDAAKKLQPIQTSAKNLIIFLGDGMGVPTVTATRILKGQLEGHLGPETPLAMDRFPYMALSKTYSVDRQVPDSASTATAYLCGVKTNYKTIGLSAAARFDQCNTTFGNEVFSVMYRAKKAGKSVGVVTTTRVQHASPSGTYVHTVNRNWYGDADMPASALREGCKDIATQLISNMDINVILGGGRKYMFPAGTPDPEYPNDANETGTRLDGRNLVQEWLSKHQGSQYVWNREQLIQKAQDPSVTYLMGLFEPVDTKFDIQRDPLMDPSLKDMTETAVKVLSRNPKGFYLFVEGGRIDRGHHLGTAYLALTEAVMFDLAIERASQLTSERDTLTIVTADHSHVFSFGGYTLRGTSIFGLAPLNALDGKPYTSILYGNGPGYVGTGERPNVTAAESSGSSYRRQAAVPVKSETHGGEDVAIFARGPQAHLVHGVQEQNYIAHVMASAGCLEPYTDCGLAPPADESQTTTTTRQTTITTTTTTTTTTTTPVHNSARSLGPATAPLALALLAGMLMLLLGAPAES
Tumor necrosis factor, sequence (P01375 whole entry): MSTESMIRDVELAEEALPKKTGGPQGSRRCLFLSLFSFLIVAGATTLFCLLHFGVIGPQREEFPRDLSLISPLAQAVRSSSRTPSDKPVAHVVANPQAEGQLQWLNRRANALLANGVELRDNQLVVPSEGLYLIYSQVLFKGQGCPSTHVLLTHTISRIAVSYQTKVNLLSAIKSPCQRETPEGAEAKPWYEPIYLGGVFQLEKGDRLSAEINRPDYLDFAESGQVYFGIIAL
Cytochrome P450 3A4, sequence (P08684 whole entry): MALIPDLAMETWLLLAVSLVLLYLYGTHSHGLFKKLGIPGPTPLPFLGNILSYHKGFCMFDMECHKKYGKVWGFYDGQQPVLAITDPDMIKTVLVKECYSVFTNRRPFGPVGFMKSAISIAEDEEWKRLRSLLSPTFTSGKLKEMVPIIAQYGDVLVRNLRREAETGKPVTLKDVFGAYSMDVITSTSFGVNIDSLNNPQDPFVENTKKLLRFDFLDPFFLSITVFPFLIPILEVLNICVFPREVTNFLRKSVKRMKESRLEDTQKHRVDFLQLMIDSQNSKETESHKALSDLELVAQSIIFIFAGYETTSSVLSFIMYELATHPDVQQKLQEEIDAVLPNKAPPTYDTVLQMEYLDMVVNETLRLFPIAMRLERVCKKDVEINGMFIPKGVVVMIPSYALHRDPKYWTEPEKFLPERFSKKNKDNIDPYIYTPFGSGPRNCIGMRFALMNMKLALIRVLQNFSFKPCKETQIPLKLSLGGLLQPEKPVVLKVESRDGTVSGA

One may read the AC50 as the concentration giving half of the maximal activity seen. Usually EC50 stands for the concentration at which the effect is half-maximal. What is called IC50 is the midpoint of a concentration-inhibition curve. What is called CC50 is the concentration giving 50% cytotoxicity. For `COc1cc(CNC2CCCC2)cc(Cl)c1OCc1ccccc1Cl`, the AC50 in data set [1] was 7.36 µM (active); in [2] it was 17.7 µM (active); in [9] it was 5.89 µM (active); in data set [10], 17.5 µM (active). The EC50 in data set [3] was 12.1 µM (active); in [4], 1.17 µM (active); in data set [5], 13.8 µM (active); in [6] it was 14.6 µM (active). The 50% inhibitory concentration (IC50) in data set [7] is 16.8 µM (active). For the same molecule, the CC50 in data set [8] was > 20 µM (active); in data set [11], 18.3 µM (active); in data set [12], 19.1 µM (active).
Regarding `CC(=O)c1ccc(N2CCN(S(=O)(=O)c3ccc4c(c3)CCN4C(C)=O)CC2)cc1`, the IC50 is 13.2 µM (active) in data set [13] and > 20 µM (inactive) in [14].
Take `Cc1ccc(S(=O)(=O)NCCC(=O)NNC(=O)COc2ccc(Br)cc2)cc1C`: the EC50 was 16 µM (active) in [15], 11.5 µM (active) in data set [16] and 16.4 µM (active) in data set [18]. Besides, in data set [17], the IC50 is 89.4 µM (active).
In the case of `CCOc1cccc(/C=C/c2ccc3cccc(O)c3n2)c1OC`, the IC50 in [19] was 16.6 µM (active). Also, the EC50 in data set [4] was 2.48 µM (active); in [5] it was 4.48 µM (active); in data set [21], 27.7 µM (active); in [22], > 40 µM (inactive). Moreover, the AC50 in [20] was 26 µM (active).
Consider `CCN1CCc2nc(NC(=O)CC(c3ccccc3)c3ccccc3)sc2C1`, for which the AC50 in [23] was 15.8 µM (inconclusive); in data set [25], “inconclusive”. Further, in data set [24], the IC50 is 9.25 µM (active).
Take `Cc1ccc(C(=O)CNc2ccc(C)c(Cl)c2)cc1`: the IC50 in data set [19] was 5.43 µM (active); in [26], > 100 µM (active). Moreover, the EC50 in data set [22] is > 40 µM (inactive).
Regarding `COc1ccc(C[C@H]2CN3C(=NC[C@@H]3C(C)C)N2CCNC(=O)c2ccc(C)c(Br)c2)cc1`, the AC50 in [27] was 34.3 µM (active). The IC50 in data set [28] is > 20 µM (inactive).
Regarding `C#Cc1cccc(NC(=O)CSc2nnc(-c3ccc(C(F)(F)F)cn3)o2)c1`, the AC50 in data set [27] and in [10] was > 11 µM (active) each time.
